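Each compound was tested at five concentrations against cells in 96-well plates for 48 hours. At the TGI there is no net growth.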
Assays:
Experiment in all cases: DTP human tumour cell line panel, 48 h
[1] = tested on: UO-31 renal
[2] = tested on: U251 CNS
[3] = tested on: OVCAR-5 ovarian
[4] = tested on: SNB-75 CNS
[5] = tested on: RPMI-8226 leukemia
[6] = tested on: OVCAR-8 ovarian
[7] = tested on: NCI-H460 lung
[8] = tested on: HT29 colon
[9] = tested on: SF-295 CNS
[10] = tested on: SW-620 colon
[11] = tested on: EKVX NSCLC
[12] = tested on: MDA-MB-435
[13] = tested on: CAKI-1 renal
[14] = tested on: OVCAR-4 ovarian
[15] = tested on: PC-3 prostate
[16] = tested on: A498 renal
[17] = tested on: 786-0 renal
[18] = tested on: RXF 393 renal
[19] = tested on: DU-145 prostate
[20] = tested on: HOP-92 NSCLC
[21] = tested on: HS 578T breast
[22] = tested on: MDA-N
[23] = tested on: NCI-H522 lung
[24] = tested on: MDA-MB-231 breast
[25] = tested on: HL-60(TB) leukemia
[26] = tested on: SF-268 CNS
[27] = tested on: KM12 colon
[28] = tested on: UACC-62 melanoma
[29] = tested on: ACHN renal
[30] = tested on: SK-MEL-28 melanoma
[31] = tested on: MALME-3M melanoma
[32] = tested on: SK-MEL-2 melanoma
[33] = tested on: IGROV1 ovarian
[34] = tested on: HCT-15 colon
[35] = tested on: MCF7 breast
[36] = tested on: UACC-257 melanoma
[37] = tested on: HCC-2998 colon
[38] = tested on: SN12C renal
[39] = tested on: CCRF-CEM leukemia
[40] = tested on: BT-549 breast
[41] = tested on: LOX IMVI melanoma
[42] = tested on: NCI-H23 lung
[43] = tested on: NCI-H226 lung
[44] = tested on: OVCAR-3 ovarian
[45] = tested on: HOP-62 NSCLC
[46] = tested on: SNB-19 CNS
[47] = tested on: SF-539 CNS
[48] = tested on: SK-MEL-5 melanoma
[49] = tested on: COLO 205 colon
[50] = tested on: K-562 leukemia
[51] = tested on: TK-10 renal
[52] = tested on: SK-OV-3 ovarian
[53] = tested on: HCT-116 colon
[54] = tested on: T-47D breast
[55] = tested on: M14 melanoma
[56] = tested on: A549 NSCLC
[57] = tested on: MOLT-4 leukemia
[58] = tested on: NCI/ADR-RES ovarian
[59] = tested on: SR leukemia

In the case of CC(=O)O[C@H]1CC[C@@]2(C)C(=CC[C@@H]3[C@@H]2CC[C@]2(C)c4nc(N)c(C#N)cc4C[C@@H]32)C1, the TGI [1] is reported as over 100 µM, the TGI [2] is reported as over 100 µM and the TGI [3] is reported as over 100 µM. The TGI [4] was 23.6 µM, the TGI [5] was over 100 µM and the TGI [6] was over 100 µM. For the same molecule, the TGI [7] was over 100 µM, the TGI [8] was over 62.2 µM and the TGI [9] was over 100 µM. It also gave a TGI [10] of over 100 µM, a TGI [11] of over 86.9 µM and a TGI [12] of over 100 µM. For the same molecule, the TGI [13] was over 100 µM, the TGI [14] was over 86.9 µM and the TGI [15] was over 100 µM. It also gave a TGI [16] of over 100 µM, a TGI [17] of over 96 µM and a TGI [18] of 49 µM. For the same molecule, the TGI [19] was over 100 µM, the TGI [20] was over 100 µM and the TGI [21] was over 95.2 µM. For the same molecule, the TGI [22] was over 100 µM, the TGI [23] was over 100 µM and the TGI [24] was over 100 µM. For the same molecule, the TGI [25] was over 94.9 µM, the TGI [26] was over 100 µM and the TGI [27] was over 100 µM. It also gave a TGI [28] of over 100 µM, a TGI [29] of over 100 µM and a TGI [30] of over 100 µM. The TGI [31] was over 100 µM, the TGI [32] was over 100 µM and the TGI [33] was over 100 µM. It also gave a TGI [34] of over 42.6 µM, a TGI [35] of over 100 µM and a TGI [36] of over 100 µM. For the same molecule, the TGI [37] was over 100 µM, the TGI [38] was over 100 µM and the TGI [39] was over 89.5 µM. For the same molecule, the TGI [40] was over 63.7 µM, the TGI [41] was over 100 µM and the TGI [42] was over 100 µM. The TGI [43] was over 100 µM, the TGI [44] was 23.8 µM and the TGI [45] was 46.5 µM. The TGI [46] was over 100 µM, the TGI [47] was 64 µM and the TGI [48] was 43.4 µM. It also gave a TGI [49] of over 100 µM, a TGI [50] of over 100 µM and a TGI [51] of over 100 µM. It also gave a TGI [52] of over 83.8 µM, a TGI [53] of over 100 µM and a TGI [54] of over 96.6 µM. It also gave a TGI [55] of over 100 µM, a TGI [56] of over 100 µM and a TGI [57] of over 100 µM.
Work on CC[C@@]1(O)C(=O)OCc2c1cc1n(c2=O)Cc2c-1nc1ccccc1c2/C=N\NC(=O)C(N)CS (stereo partly specified) yielded a TGI [1] of 14.7 µM, a TGI [2] of over 34.5 µM and a TGI [3] of over 100 µM. The TGI [4] was 14 µM, the TGI [5] was over 100 µM and the TGI [6] was over 100 µM. It also gave a TGI [7] of over 43.6 µM, a TGI [8] of over 100 µM and a TGI [9] of over 33.9 µM. The TGI [58] was over 45.2 µM, the TGI [10] was over 100 µM and the TGI [11] was over 100 µM. The TGI [12] was over 100 µM, the TGI [13] was over 91.3 µM and the TGI [14] was over 100 µM. It also gave a TGI [15] of over 100 µM, a TGI [16] of 23 µM and a TGI [17] of over 100 µM. It also gave a TGI [18] of 10.2 µM, a TGI [19] of 6.76 µM and a TGI [20] of over 57.1 µM. The TGI [21] was over 100 µM, the TGI [22] was over 100 µM and the TGI [23] was 25.9 µM. The TGI [24] was over 100 µM, the TGI [25] was over 100 µM and the TGI [26] was over 100 µM. It also gave a TGI [27] of over 100 µM, a TGI [28] of 0.761 µM and a TGI [30] of over 100 µM. It also gave a TGI [31] of over 100 µM, a TGI [32] of over 100 µM and a TGI [33] of over 85.3 µM. For the same molecule, the TGI [34] was over 100 µM, the TGI [35] was over 100 µM and the TGI [36] was over 100 µM. It also gave a TGI [37] of over 100 µM, a TGI [38] of over 22.8 µM and a TGI [59] of 1.04 µM. It also gave a TGI [40] of over 100 µM, a TGI [41] of 13.4 µM and a TGI [42] of 21.1 µM. For the same molecule, the TGI [43] was 34.1 µM, the TGI [44] was over 100 µM and the TGI [46] was over 31.6 µM. It also gave a TGI [47] of 0.806 µM, a TGI [48] of 3.9 µM and a TGI [49] of over 100 µM. The TGI [50] was over 100 µM, the TGI [51] was over 100 µM and the TGI [52] was over 100 µM. For the same molecule, the TGI [53] was over 100 µM, the TGI [55] was 10.5 µM and the TGI [56] was over 100 µM. The TGI [57] was 2.07 µM.
O=C1C[C@H](c2ccccc2)C2(C(=O)c3ccccc3C2=O)[C@@H](c2ccccc2)C1 gave a TGI [1] of over 100 µM, a TGI [2] of over 100 µM and a TGI [3] of over 100 µM. For the same molecule, the TGI [4] was over 100 µM, the TGI [5] was over 100 µM and the TGI [6] was over 100 µM. The TGI [7] was over 100 µM, the TGI [8] was over 100 µM and the TGI [9] was over 100 µM. For the same molecule, the TGI [58] was over 100 µM, the TGI [13] was over 100 µM and the TGI [14] was over 100 µM. For the same molecule, the TGI [15] was over 100 µM, the TGI [16] was over 100 µM and the TGI [18] was over 100 µM. The TGI [19] was over 100 µM, the TGI [20] was 90.9 µM and the TGI [21] was over 100 µM. It also gave a TGI [22] of 81 µM, a TGI [23] of over 100 µM and a TGI [24] of over 100 µM. For the same molecule, the TGI [25] was over 100 µM, the TGI [28] was 26.7 µM and the TGI [30] was over 100 µM. The TGI [31] was over 100 µM, the TGI [32] was 69.3 µM and the TGI [33] was over 100 µM. For the same molecule, the TGI [34] was over 100 µM, the TGI [35] was 83 µM and the TGI [37] was over 100 µM. It also gave a TGI [38] of over 100 µM, a TGI [39] of over 100 µM and a TGI [59] of over 100 µM. It also gave a TGI [40] of 71.9 µM, a TGI [42] of over 100 µM and a TGI [43] of 69.1 µM. It also gave a TGI [44] of over 100 µM, a TGI [45] of over 100 µM and a TGI [46] of over 100 µM. For the same molecule, the TGI [48] was 31 µM, the TGI [49] was 53.6 µM and the TGI [50] was over 100 µM. It also gave a TGI [52] of over 100 µM, a TGI [54] of over 100 µM and a TGI [55] of 95.9 µM. The TGI [57] was over 100 µM.
Cc1ccccc1NC(=S)N=Nc1c(O)[nH]c2ccccc12 was tested, and the TGI [1] was over 100 µM, the TGI [2] was over 100 µM and the TGI [3] was over 100 µM. The TGI [4] was over 100 µM, the TGI [5] was over 100 µM and the TGI [6] was over 100 µM. For the same molecule, the TGI [7] was over 100 µM, the TGI [8] was over 100 µM and the TGI [9] was over 100 µM. The TGI [58] was over 100 µM, the TGI [10] was over 100 µM and the TGI [11] was over 100 µM. For the same molecule, the TGI [12] was over 100 µM, the TGI [13] was over 100 µM and the TGI [14] was over 100 µM. It also gave a TGI [15] of over 100 µM, a TGI [16] of over 100 µM and a TGI [17] of over 100 µM. It also gave a TGI [18] of over 100 µM, a TGI [19] of over 100 µM and a TGI [20] of over 100 µM. It also gave a TGI [21] of over 100 µM, a TGI [22] of over 100 µM and a TGI [23] of over 100 µM. It also gave a TGI [24] of over 100 µM, a TGI [25] of over 100 µM and a TGI [26] of 65.3 µM. It also gave a TGI [27] of over 100 µM, a TGI [28] of over 100 µM and a TGI [29] of over 100 µM. It also gave a TGI [30] of 36.7 µM, a TGI [31] of over 100 µM and a TGI [32] of over 100 µM. It also gave a TGI [33] of over 100 µM, a TGI [34] of over 100 µM and a TGI [35] of over 100 µM. It also gave a TGI [36] of over 100 µM, a TGI [37] of over 100 µM and a TGI [38] of over 100 µM. For the same molecule, the TGI [39] was over 100 µM, the TGI [59] was over 100 µM and the TGI [41] was over 100 µM. The TGI [42] was over 100 µM, the TGI [43] was over 100 µM and the TGI [44] was over 100 µM. It also gave a TGI [45] of over 100 µM, a TGI [46] of over 100 µM and a TGI [47] of over 100 µM. For the same molecule, the TGI [48] was over 100 µM, the TGI [49] was over 100 µM and the TGI [50] was over 100 µM. For the same molecule, the TGI [51] was over 100 µM, the TGI [52] was over 100 µM and the TGI [53] was over 100 µM. It also gave a TGI [54] of over 100 µM, a TGI [55] of over 100 µM and a TGI [56] of over 100 µM. For the same molecule, the TGI [57] was over 100 µM.

— PubChem BioAssay (NCI)
